Measurements from PubChem BioAssay AID1259407 (Chemical Carcinogenesis Research Information System (CCRIS), 2018).
Active and inactive are the calls of the source. How the calls were made is not given here.

Test system: CCRIS mutagenicity, Ames/micronucleus/aberration tests
Experiment: CCRIS mutagenicity studies
[1] = Test System: AMES SALMONELLA TYPHIMURIUM, Strain/Indicator: TA98, Metabolic Activation: NONE, Method: PREINCUBATION
[2] = Test System: AMES SALMONELLA TYPHIMURIUM, Strain/Indicator: TA100, Metabolic Activation: NONE, Method: STANDARD PLATE
[3] = Test System: AMES SALMONELLA TYPHIMURIUM, Strain/Indicator: TA1537, Metabolic Activation: NONE, Method: PREINCUBATION
[4] = Test System: AMES SALMONELLA TYPHIMURIUM, Strain/Indicator: TA98, Metabolic Activation: NONE, Method: STANDARD PLATE
[5] = Test System: AMES SALMONELLA TYPHIMURIUM, Strain/Indicator: TA1535, Metabolic Activation: NONE, Method: STANDARD PLATE
[6] = Test System: AMES SALMONELLA TYPHIMURIUM, Strain/Indicator: TA1537, Metabolic Activation: NONE, Method: STANDARD PLATE

Question: How did the mutagenic call (End Point: In vitro chromosomal aberrations, Test System: Chinese hamster lung (CHL/IU) cells, Metabolic Activation: Rat, Liver, S9, Phenobarbital and 5,6-benzoflavone) turn out when ClCc1ccc(Cl)cc1 was run?
Answer: active; positive (structural changes and ploidy). precipitation in the culture medium at

Question: What about the mutagenic call [1] of the same molecule?
Answer: inactive; negative

Question: And the mutagenic call (Test System: AMES SALMONELLA TYPHIMURIUM, Strain/Indicator: TA98, Metabolic Activation: RAT LIVER S-9, PHENOBARBITAL AND BETA-NAPHTHOFLAVONE, Method: PREINCUBATION)?
Answer: inactive; negative

Question: And the mutagenic call (Test System: AMES SALMONELLA TYPHIMURIUM, Strain/Indicator: TA100, Metabolic Activation: NONE, Method: PREINCUBATION)?
Answer: inactive; negative

Question: And the mutagenic call [2]?
Answer: inactive; negative

Question: What about the mutagenic call (Test System: AMES SALMONELLA TYPHIMURIUM, Strain/Indicator: TA100, Metabolic Activation: RAT LIVER S-9, PHENOBARBITAL AND BETA-NAPHTHOFLAVONE, Method: PREINCUBATION) of the same molecule?
Answer: inactive; negative

Question: And the mutagenic call (Test System: AMES SALMONELLA TYPHIMURIUM, Strain/Indicator: TA102, Metabolic Activation: NONE, Method: PREINCUBATION)?
Answer: inactive; negative

Question: And the mutagenic call (Test System: AMES SALMONELLA TYPHIMURIUM, Strain/Indicator: TA102, Metabolic Activation: RAT LIVER S-9, PHENOBARBITAL AND BETA-NAPHTHOFLAVONE, Method: PREINCUBATION)?
Answer: inactive; negative

Question: What about the mutagenic call (Test System: AMES SALMONELLA TYPHIMURIUM, Strain/Indicator: TA104, Metabolic Activation: NONE, Method: PREINCUBATION) of the same molecule?
Answer: inactive; negative

Question: What about the mutagenic call (Test System: AMES SALMONELLA TYPHIMURIUM, Strain/Indicator: TA104, Metabolic Activation: RAT LIVER S-9, PHENOBARBITAL AND BETA-NAPHTHOFLAVONE, Method: PREINCUBATION) of the same molecule?
Answer: inactive; negative

Question: And the mutagenic call (Test System: AMES SALMONELLA TYPHIMURIUM, Strain/Indicator: TA1535, Metabolic Activation: NONE, Method: PREINCUBATION)?
Answer: inactive; negative

Question: And the mutagenic call (Test System: AMES SALMONELLA TYPHIMURIUM, Strain/Indicator: TA1535, Metabolic Activation: RAT LIVER S-9, PHENOBARBITAL AND BETA-NAPHTHOFLAVONE, Method: PREINCUBATION)?
Answer: inactive; negative

Question: What about the mutagenic call [3] of the same molecule?
Answer: inactive; negative

Question: And the mutagenic call (Test System: AMES SALMONELLA TYPHIMURIUM, Strain/Indicator: TA1537, Metabolic Activation: RAT LIVER S-9, PHENOBARBITAL AND BETA-NAPHTHOFLAVONE, Method: PREINCUBATION)?
Answer: inactive; negative

Question: And the mutagenic call (Test System: E.COLI, Strain/Indicator: WP2UVRA/PKM101, Metabolic Activation: NONE, Method: PREINCUBATION)?
Answer: inactive; negative

Question: And the mutagenic call (Test System: E.COLI, Strain/Indicator: WP2UVRA/PKM101, Metabolic Activation: RAT LIVER S-9, PHENOBARBITAL AND BETA-NAPHTHOFLAVONE, Method: PREINCUBATION)?
Answer: inactive; negative

Question: And the mutagenic call (Test System: E.COLI, Strain/Indicator: WP2UVRA, Metabolic Activation: NONE, Method: PREINCUBATION)?
Answer: inactive; negative

Question: What about the mutagenic call (Test System: E.COLI, Strain/Indicator: WP2UVRA, Metabolic Activation: RAT LIVER S-9, PHENOBARBITAL AND BETA-NAPHTHOFLAVONE, Method: PREINCUBATION) of the same molecule?
Answer: inactive; negative

Question: With CC(=O)c1ccc(N)cc1 as the molecule, how does the mutagenic call (Test System: E. COLI, Strain/Indicator: WP2 UVRA, Metabolic Activation: NONE, Method: FLUCTUATION TEST) read?
Answer: inactive; negative

Question: Cc1cc2c(c(O)c1O)C(=O)c1c(O)cc(O)cc1C2=O was tested. Which mutagenic call [4] did it give?
Answer: inactive; negative

Question: What about the mutagenic call [2] of the same molecule?
Answer: inactive; negative

Question: And the mutagenic call [5]?
Answer: inactive; negative

Question: And the mutagenic call [6]?
Answer: active; positive

Question: What about the mutagenic call (Test System: AMES SALMONELLA TYPHIMURIUM, Strain/Indicator: TA1537, Metabolic Activation: RAT, LIVER, S-9, PCB, Method: STANDARD PLATE) of the same molecule?
Answer: active; positive

Question: Which results are given for Cc1c(C)c2c(N)c3ccccc3nc2c2ccccc12?
Answer: mutagenic call (Test System: AMES SALMONELLA TYPHIMURIUM, Strain/Indicator: TA97, Metabolic Activation: NONE, Method: PREINCUBATION): active; positive; mutagenic call (Test System: AMES SALMONELLA TYPHIMURIUM, Strain/Indicator: TA97, Metabolic Activation: NONE, Method: STANDARD PLATE): active; positive; mutagenic call [1]: active; positive; mutagenic call [3]: inactive; negative; mutagenic call [6]: active; positive

Question: With CC(CNC(=O)c1cccnc1)NC(=O)c1cccnc1 (stereo unspecified) as the molecule, how does the mutagenic call [4] read?
Answer: inactive; negative

Question: What about the mutagenic call (Test System: AMES SALMONELLA TYPHIMURIUM, Strain/Indicator: TA98, Metabolic Activation: RAT, LIVER, S-9, PHENOBARBITAL AND 5,6-BENZOFLAVONE, Method: STANDARD PLATE) of the same molecule?
Answer: inactive; negative

Question: And the mutagenic call [2]?
Answer: inactive; negative

Question: What about the mutagenic call (Test System: AMES SALMONELLA TYPHIMURIUM, Strain/Indicator: TA100, Metabolic Activation: RAT, LIVER, S-9, PHENOBARBITAL AND 5,6-BENZOFLAVONE, Method: STANDARD PLATE) of the same molecule?
Answer: inactive; negative

Question: What about the mutagenic call [5] of the same molecule?
Answer: inactive; negative

Question: And the mutagenic call (Test System: AMES SALMONELLA TYPHIMURIUM, Strain/Indicator: TA1535, Metabolic Activation: RAT, LIVER, S-9, PHENOBARBITAL AND 5,6-BENZOFLAVONE, Method: STANDARD PLATE)?
Answer: inactive; negative

Question: And the mutagenic call [6]?
Answer: inactive; negative

Question: And the mutagenic call (Test System: AMES SALMONELLA TYPHIMURIUM, Strain/Indicator: TA1537, Metabolic Activation: RAT, LIVER, S-9, PHENOBARBITAL AND 5,6-BENZOFLAVONE, Method: STANDARD PLATE)?
Answer: inactive; negative

Question: And the mutagenic call (Test System: E. COLI, Strain/Indicator: WP2 UVRA, Metabolic Activation: NONE, Method: STANDARD PLATE)?
Answer: inactive; negative

Question: And the mutagenic call (Test System: E. COLI, Strain/Indicator: WP2 UVRA, Metabolic Activation: RAT, LIVER, S-9, PHENOBARBITAL AND 5,6-BENZOFLAVONE, Method: STANDARD PLATE)?
Answer: inactive; negative

Question: For Oc1ccc2ccc3c4c(cc5ccc1c2c53)[C@@H](O)[C@H](O)C=C4, which mutagenic call (Test System: AMES SALMONELLA TYPHIMURIUM, Strain/Indicator: TA97, Metabolic Activation: RAT, LIVER, S-9, AROCLOR 1254, Method: STANDARD PLATE) is on record?
Answer: active; positive

Question: And the mutagenic call (Test System: AMES SALMONELLA TYPHIMURIUM, Strain/Indicator: TA98, Metabolic Activation: RAT, LIVER, S-9, AROCLOR 1254, Method: STANDARD PLATE)?
Answer: active; positive

Question: What about the mutagenic call (Test System: AMES SALMONELLA TYPHIMURIUM, Strain/Indicator: TA100, Metabolic Activation: RAT, LIVER, S-9, AROCLOR 1254, Method: STANDARD PLATE) of the same molecule?
Answer: active; positive

Question: What about the mutagenic call (Test System: AMES SALMONELLA TYPHIMURIUM, Strain/Indicator: TA1537, Metabolic Activation: RAT, LIVER, S-9, AROCLOR 1254, Method: STANDARD PLATE) of the same molecule?
Answer: active; positive

Question: And the mutagenic call (Test System: CHINESE HAMSTER V-79, Strain/Indicator: V-79/6-THIOGUANINE, Metabolic Activation: RAT, LIVER, S-9, AROCLOR 1254)?
Answer: active; positive

Question: How did the mutagenic call (End Point: In vitro chromosome aberrations, Test System: Human peripheral blood lymphocytes, Metabolic Activation: None) turn out when NCP(=O)(O)O was run?
Answer: active; positive (structural changes)

Question: What about the mutagenic call (End Point: In vivo micronucleus, Test System: Bone marrow erythrocytes, Species: Mouse, Strain/Sex: BALB/Male and female, Route: Intraperitoneal) of the same molecule?
Answer: active; positive
